Assay results reported in ChEMBL document CHEMBL5726876, “NHE3-binding compounds and methods for inhibiting phosphate transport” (2019).

Test: Cell-based activity under Prompt Conditions: Cell-based activity under Prompt Conditions. Rat or human NHE3-mediated Na+-dependent H+ antiport was measured using a modification of the pH sensitive dye method originally reported by Paradiso (PNAS USA. 81:7436-7440, 1984). Opossum kidney (OK) cells were obtained from the ATCC and propagated per their instructions. The rat NHE3 gene (GenBank M85300) or the human NHE3 gene (GenBank NM_004174.1) was introduced into OK cells via electroporation, and cells were seeded into 96 well plates and grown overnight. Medium was aspirated from the wells, cells were washed twice with NaCl-HEPES buffer (100 mM NaCl, 50 mM HEPES, 10 mM glucose, 5 mM KCl, 2 mM CaCl2, 1 mM MgCl2, pH 7.4), then incubated for 30 min at room temperature with NH4Cl-HEPES buffer (20 mM NH4Cl, 80 mM NaCl, 50 mM HEPES, 5 mM KCl, 2 mM CaCl2, 1 mM MgCl2, pH 7.4) containing 5 μM bis(acetoxymethyl) 3,3′-(3′,6′-bis(acetoxymethoxy)-5-((acetoxymethoxy)carbonyl)-3-oxo-3H-spiro[isobenzofuran-1,9′-xanthene]-2′,7′-diyl)dipropanoate (BCECF-AM).Cells were washed twice with Ammonium free, Na+-free HEPES (100 mM choline, 50 mM HEPES, 10 mM glucose, 5 mM KCl, 2 mM CaCl2, 1 mM MgCl2, pH 7.4) and incubated in the same buffer for 10 minutes at room temperature to lower intracellular pH. […] Initial rates were plotted as the average 2 or more replicates, and pIC50 values were estimated using GraphPad Prism.

Row | Compound | IC50 [nM]
1 | N[C@@H]1CCCN([C@H]2Cc3c(Cl)cc(Cl)cc3[C@@H]2Oc2ccc(S(=O)(=O)NCCOCCOCCNC(=O)NCCCCNC(=O)NCCOCCOCCNS(=O)(=O)c3ccc(O[C@H]4c5cc(Cl)cc(Cl)c5C[C@@H]4N4CCC[C@@H](N)C4)cc3)cc2)C1 | 39.8
2 | CN1Cc2c(Cl)cc(Cl)cc2[C@H](c2cccc(S(=O)(=O)NCCOCCOCCOCCN)c2)C1 | 45.7
3 | CN(C)[C@H]1Cc2c(Cl)cc(Cl)cc2[C@@H]1Oc1ccc(S(=O)(=O)NCCOCCOCCNC(=O)CCC(C)(CCC(=O)NCCOCCOCCNS(=O)(=O)c2ccc(O[C@H]3c4cc(Cl)cc(Cl)c4C[C@@H]3N(C)C)cc2)NC(=O)CCC(=O)O)cc1 | 10
4 | CN(C)CC(=O)NCCOCCOCCNC(=O)NCCOCCOCCN1CCN(c2cccc(-c3nc(NC(=N)N)nc4ccc(Cl)cc34)c2)CC1 | 39.8
5 | NCCOCCOCCOc1ccc(-c2nc(N=C(N)N)nc3ccc(Cl)cc23)cc1 | 112
6 | CN1CCN(C(=O)NC(CCC(=O)NCCOCCOCCNS(=O)(=O)c2cccc([C@@H]3CN(C)Cc4c(Cl)cc(Cl)cc43)c2)(CCC(=O)NCCOCCOCCNS(=O)(=O)c2cccc([C@@H]3CN(C)Cc4c(Cl)cc(Cl)cc43)c2)CCC(=O)NCCOCCOCCNS(=O)(=O)c2cccc([C@@H]3CN(C)Cc4c(Cl)cc(Cl)cc43)c2)CC1 | 126
7 | O=C(NCCOCCOCCOCCNS(=O)(=O)c1ccc(O[C@H]2c3ccccc3C[C@@H]2N2CCCCC2)cc1)c1ccc(C(=O)NCCOCCOCCOCCNS(=O)(=O)c2ccc(O[C@H]3c4ccccc4C[C@@H]3N3CCCCC3)cc2)cc1 | 31.6
8 | O=C(NCCOCCOCCNS(=O)(=O)c1ccc(O[C@H]2c3ccccc3C[C@@H]2N2CCCCC2)cc1)[C@H](O)[C@@H](O)C(=O)NCCOCCOCCNS(=O)(=O)c1ccc(O[C@H]2c3ccccc3C[C@@H]2N2CCCCC2)cc1 | 3.98
9 | CN1Cc2c(Cl)cc(Cl)cc2[C@H](c2cccc(S(=O)(=O)NCCOCCOCCOCCNC(=O)CCC(CCC(=O)NCCOCCOCCOCCNS(=O)(=O)c3cccc([C@@H]4CN(C)Cc5c(Cl)cc(Cl)cc54)c3)(CCC(=O)NCCOCCOCCOCCNS(=O)(=O)c3cccc([C@@H]4CN(C)Cc5c(Cl)cc(Cl)cc54)c3)NCc3ccc(-c4ccc(Cl)cc4)cc3)c2)C1 | < 10000
10 | N=C(N)Nc1nc(-c2ccc(N3CCN(CCOCCOCCOCCNC(=O)NCCOCCOCCNC(=O)NCCOCCOCCOCCN4CCN(c5ccc(-c6nc(NC(=N)N)nc7ccc(Cl)cc67)cc5)CC4)CC3)cc2)c2cc(Cl)ccc2n1 | 50.1
11 | CN1Cc2c(Cl)cc(Cl)cc2[C@H](c2cccc(S(=O)(=O)NCCOCCOCCNC(=O)N(C)CCCN(CCCN(C)C(=O)NCCOCCOCCNS(=O)(=O)c3cccc([C@@H]4CN(C)Cc5c(Cl)cc(Cl)cc54)c3)CCCN(C)C(=O)NCCOCCOCCNS(=O)(=O)c3cccc([C@@H]4CN(C)Cc5c(Cl)cc(Cl)cc54)c3)c2)C1 | 126
12 | CN1Cc2c(Cl)cc(Cl)cc2[C@H](c2cccc(S(=O)(=O)NCCOCCOCCNC(=O)CCC(CCC(=O)NCCOCCOCCNS(=O)(=O)c3cccc([C@@H]4CN(C)Cc5c(Cl)cc(Cl)cc54)c3)(CCC(=O)NCCOCCOCCNS(=O)(=O)c3cccc([C@@H]4CN(C)Cc5c(Cl)cc(Cl)cc54)c3)NC(=O)NC(CO)CO)c2)C1 | 79.4
13 | CN(C)CC(=O)NC(CCC(=O)NCCOCCOCCNS(=O)(=O)c1cccc([C@@H]2CN(C)Cc3c(Cl)cc(Cl)cc32)c1)(CCC(=O)NCCOCCOCCNS(=O)(=O)c1cccc([C@@H]2CN(C)Cc3c(Cl)cc(Cl)cc32)c1)CCC(=O)NCCOCCOCCNS(=O)(=O)c1cccc([C@@H]2CN(C)Cc3c(Cl)cc(Cl)cc32)c1 | 79.4
14 | COCCOCCOCCC(=O)NCCOCCOCCOCCN1CCN(c2cccc(-c3nc(NC(=N)N)nc4ccc(Cl)cc34)c2)CC1 | 135
15 | CCCCCCCCNC(=O)N(CCNC(=O)NCCOCCOCCNS(=O)(=O)c1cccc([C@@H]2CN(C)Cc3c(Cl)cc(Cl)cc32)c1)CCNC(=O)NCCOCCOCCNS(=O)(=O)c1cccc([C@@H]2CN(C)Cc3c(Cl)cc(Cl)cc32)c1 | 1580
16 | O=C(NCCCCNC(=O)NCCOCCOCCNS(=O)(=O)c1ccc(O[C@H]2c3cc(Cl)cc(Cl)c3C[C@@H]2N2CCCCC2)cc1)NCCOCCOCCNS(=O)(=O)c1ccc(O[C@H]2c3cc(Cl)cc(Cl)c3C[C@@H]2N2CCCCC2)cc1 | < 10000
